From ChEMBL document CHEMBL1649245
The source made the active and inactive calls.

Assays:
Escherichia coli = assay: Antimicrobial activity against Escherichia coli at 10 to 50 ug/ml; type: functional, organism-based
[1] = tested on: Mycoplasmoides gallisepticum; assay: Antimicrobial activity against wild-type Mycoplasma gallisepticum at 1 to 3 ug/ml; type: functional, organism-based
[2] = tested on: Mycoplasmoides pneumoniae; assay: Antimicrobial activity against wild-type Mycoplasma pneumoniae at 1 to 3 ug/ml; type: functional, organism-based
Mycoplasma capricolum [3] = assay: Antimicrobial activity against wild-type Mycoplasma capricolum at 1 to 3 ug/ml; type: functional
Mycoplasma genitalium = assay: Antimicrobial activity against wild-type Mycoplasma genitalium at 1 to 3 ug/ml; type: functional; conditions: Mycoplasmoides genitalium
Mycoplasma capricolum [4] = assay: Antimicrobial activity against wild-type Mycoplasma capricolum at 3.7 ug/ml; type: functional
Mycoplasma mycoides = assay: Antimicrobial activity against wild-type Mycoplasma mycoides at 1 to 3 ug/ml; type: functional

Measured: Activity

COc1ccc(C[C@H](N)C(=O)N[C@H]2[C@@H](O)[C@H](n3cnc4c(N(C)C)ncnc43)O[C@@H]2CO)cc1
active: all assays above
